Data: US4943574A, “(1H-azol-1-ylmethyl) substituted benzotriazole derivatives and pharmaceutical compositions containing them” (Janssen Pharmaceutica N.V., priority 1989, dated 1990)

Key:
aromatase [1] = details: reported in Biochemical Pharmacology, 34, 1087 (1985); cited from earlier work
aromatase [2] = experiment: In vivo-inhibition of the aromatase activity (plasma estradiol in PMSG-injected immature female Wistar rats); parameters: species or system rat (immature female Wistar rats); details: 1 mg/kg oral gavage, two hours following administration, PMSG-injected immature female Wistar rats
Method: Immature female Wistar rats weighing 120 g were injected subcutaneously with 200 I.U. of pregnant mare's serum gonadotropin (PMSG). […] Control animals received 20% polyethyleneglycol only. Two hours following drug or placebo administration the rats were killed by decapitation and trunk blood was collected on heparine. Plasma estradiol concentrations were measured by standard radio-immunological procedures.

aromatase [3] = target: T1, aromatase (Homo sapiens, UniProt P11511); experiment: biochemical; details: human placental microsomes, 30 min at 37° C., pH 7.4, 1,2[3H]androstenedione; read-out: IC50-values (concentration of the compound required to obtain 50% inhibition of the estrogen synthesis)
T1 sequence (P11511 1-503): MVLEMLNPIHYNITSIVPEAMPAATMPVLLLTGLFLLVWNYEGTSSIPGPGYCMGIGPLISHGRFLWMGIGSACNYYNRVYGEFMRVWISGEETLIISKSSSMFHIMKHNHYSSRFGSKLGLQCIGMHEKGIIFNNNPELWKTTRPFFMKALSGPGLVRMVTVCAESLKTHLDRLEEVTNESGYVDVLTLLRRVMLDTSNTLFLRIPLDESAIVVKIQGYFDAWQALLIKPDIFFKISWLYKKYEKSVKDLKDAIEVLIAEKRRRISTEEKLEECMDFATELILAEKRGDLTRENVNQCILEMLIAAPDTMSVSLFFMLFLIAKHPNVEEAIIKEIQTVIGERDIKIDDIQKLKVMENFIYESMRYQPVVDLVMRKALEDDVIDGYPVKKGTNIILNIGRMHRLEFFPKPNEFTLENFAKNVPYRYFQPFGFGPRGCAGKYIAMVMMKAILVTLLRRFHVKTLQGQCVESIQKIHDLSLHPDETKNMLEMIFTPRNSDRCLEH
Method: Human placental microsomes were diluted in potassium phosphate buffer (0.1M, pH 7.4) to give about 50% conversion of androgens to estrogens (protein content: about 0.5 mg). Four ml human placental microsomes were incubated in a final volume of 5 ml with 0.2 μCi1,2[3H]-androstenedione, 2 μg androstendione and 5 μl of test compound and/or dimethyl sulfoxide (DMSO). […] The reaction was initiated by the addition of androstenedione and proceeded for 30 min at 37° C. During the incubation period, the mixtures were gassed with air. In this assay, aromatization of androstenedione results in the production of [3H]-H2 O which is isolated by extracting the samples with chloroform to remove the free steroid.

Row | SMILES | IC50 (aromatase [3]) | inhibition of the action of the enzyme aromatase (in words) (aromatase [1]) | % recovery estradiol (plasma estradiol relative to the controls) (aromatase [2])
1 | CC(=O)N1CCN(c2ccc(OCC3COC(Cn4ccnc4)(c4ccc(Cl)cc4Cl)O3)cc2)CC1 (stereo not drawn) [ketoconazole] |  | inhibit the action of the enzyme aromatase | 
2 | CC(C)n1nnc2ccc(Cn3ccnc3)cc21 [Compound 87] | 26.9 nM |  | 5%
3 | CCCn1nnc2ccc(Cn3ccnc3)cc21 [Compound 89] | 15 nM |  | 5%
4 | CC(C)n1nnc2ccc(C(c3ccccc3)n3ccnc3)cc21.O=C(O)C(=O)O (stereo not drawn) [Compound 76, 6-[(1H-imidazol-1-yl)phenylmethyl]-1-(1-methylethyl)-1H-benzotriazole ethanedioate(1:1)] | 34.7 nM |  | 9%
5 | CC(C)On1nnc2ccc(C(c3ccccc3)n3ccnc3)cc21 (stereo not drawn) [Compound 2] | 16 nM |  | 20%
6 | Cn1nnc2ccc(C(c3ccc(Cl)cc3)n3ccnc3)cc21 (stereo not drawn) [Compound 30] | 22.2 nM |  | 7%
7 | Clc1ccc(COC(Cn2ccnc2)c2ccc(Cl)cc2Cl)c(Cl)c1 (stereo not drawn) [miconazole] |  | inhibit the action of the enzyme aromatase | 
8 | CCCCn1nnc2ccc(C(c3ccc(F)cc3)n3ccnc3)cc21 (stereo not drawn) [Compound 17] | 18.2 nM |  | 7%
9 | Cn1nnc2ccc(C(c3ccccc3)n3ccnc3)cc21 (stereo not drawn) [Compound 90] | 22.7 nM |  | 5%
10 | c1ccc(CCn2nnc3ccc(Cn4ccnc4)cc32)cc1 [Compound 92] | 8.7 nM |  | 15%
11 | Clc1ccccc1C(c1ccccc1)(c1ccccc1)n1ccnc1 [clotrimazole] |  | inhibit the action of the enzyme aromatase | 
12 | CC(C)CCn1nnc2ccc(Cn3ccnc3)cc21 [Compound 93] | 10.5 nM |  | 8%
13 | Cn1nnc2ccc(C(c3cccc(Cl)c3)n3ccnc3)cc21 (stereo not drawn) [Compound 28] | 25.3 nM |  | 6%
14 | Cn1nnc2ccc(C(c3cccc(F)c3)n3ccnc3)cc21 (stereo not drawn) [Compound 33] | 24.6 nM |  | 5%

Second part, led by results:

Row | IC50 (aromatase [3]) | SMILES | inhibition of the action of the enzyme aromatase (in words) (aromatase [1]) | % recovery estradiol (plasma estradiol relative to the controls) (aromatase [2])
15 | 13.1 nM | c1cn(Cc2ccc3nnn(CC4CCCCC4)c3c2)cn1 [Compound 97] |  | 10%
16 | 15.2 nM | c1cn(Cc2ccc3nnn(CC4CC4)c3c2)cn1 [Compound 108] |  | 3%
17 | 18.8 nM | Fc1ccc(C(c2ccc3[nH]nnc3c2)n2ccnc2)cc1 (stereo not drawn) [Compound 113] |  | 4%
18 | 12 nM | CC(C)On1nnc2ccc(Cn3ccnc3)cc21 [Compound 195, 6-(1H-imidazol-1-ylmethyl)-1-(1-methylethoxy)-1H-benzotriazole] |  | 19%
19 | 24.4 nM | C=CCn1nnc2ccc(Cn3ccnc3)cc21 [Compound 106] |  | 8%
20 | 9.2 nM | BrCCOn1nnc2ccc(Cn3ccnc3)cc21 [Compound 204] |  | 19%
21 | 24.9 nM | CC(C)n1nnc2ccc(C(c3ccc(Cl)cc3)n3ccnc3)cc21 (stereo not drawn) [Compound 116] |  | 20%
